Consider one compound from patent publication US20230355631A1, “PROCESS FOR IMPROVING FLUIDITY OF PALBOCICLIB ISETHIONATE AND COMPOSITION” (NANJING GRITPHARMA CO., LTD., priority 2020, published 2023).

The nature of the series: Properties of the granules / powder mix (angle of repose, bulk density, tap density, compression index). It is filed as physicochemical. The following applies: bulk drug powder. As to the method:
With reference to Example 7, 5 batches of samples 7-1, 7-2, 7-3, 7-4, and 7-5 were prepared by a capsule filling process after granules were prepared by dry granulation at different press roll pressures (a GL5-50 dry granulation machine with a 2.0 mm primary granulation sieve and a 1.0 mm secondary granulation sieve was used), and properties of the granules (including angle of repose, bulk density, and tap density), content uniformity of finished products, and other indexes were investigated separately. […] According to requirements of pharmacopoeia, the release rate of the samples is equal to or greater than 80% (Q) of the labelled amount in a medium with a pH of 1.2 within 30 minutes. Thus, the release rate of the various batches of samples (7-1, 7-2, 7-3, 7-4, and 7-5) was investigated in a medium with a pH of 1.2.
The palbociclib isethionate has poor fluidity and is a loose powder. […] Especially when capsules are filled in commercial batches in a large scale, the problem of difficulty in automatic filling at high speed will be caused due to poor fluidity of the powder. Moreover, the filled capsules have great differences in loading capacity, so that the content uniformity and the product quality are unqualified. […]

SMILES strings stand for the structures.

Take `CC(=O)c1c(C)c2cnc(Nc3ccc(N4CCNCC4)cn3)nc2n(C2CCCC2)c1=O.O=S(=O)(O)CCO` [palbociclib isethionate]: the “Fluidity of the raw material” value is recorded as “poor fluidity”.
